Measured values published in patent publication US20240366612A1, “COMPOUNDS AND METHODS FOR MODULATING NUCLEIC ACID SPLICING” (REMIX THERAPEUTICS INC., priority 2021, published 2024).
Where a name gives a salt, the structure may show the parent alone.

Assays:
[1] = tested on: HiBiT-tagged MYB protein in K562 cells; assay: HiBiT protein abundance assay, MYB; assay type: cell-based, human; conditions: HiBiT-modified K562 cells, 24 hours, luminescence
Procedure: (§1) Compounds described herein were used to screen for effects on quantitative protein abundance using a HiBit assay system (Promega). Quantitative protein abundance was determined by measuring the protein levels of HiBit-tagged protein targets expressed in cell culture via luminescence using the Nano-Glo HiBiT Lytic Detection System, which uses a split complementation assay format to reconstitute NanoBiT enzyme to generate a luminescent signal. A protein abundance assay was developed such that endogenous protein targets could be modified with the HiBiT peptide tag and their abundance could be assessed after compound treatment. Briefly, K562 cell lines containing a HiBiT-modification were treated with various compounds described herein (e.g., compounds of Formulas (I), (II), or (III)). After treatment for 24 hours, the protein abundance of a specific target was determined by measuring luminescence.
(§2) • Promega Nano-Glo HiBiT Lytic Detection System (cat #N3030) • Corning 384-well TC-treated microplates (cat #3570) • Synthego Engineered Cells Knock-In Clones
(§3) Cells were maintained in IMDM with 10% FBS. Before the assay, cells were diluted with […] growth media (IMDM+1% FBS media) and were seeded in a 384-well plate at a density of 10000 cells/well (for each cell line listed in Table 5). Each compound was prepared as a 10-point 3-fold serial dilution in DMSO with the top dose at a final concentration of 10 μM in the well. Unmodified K562 cells were added at the previously specified density with DMSO to serve as an assay baseline and positive control (PC) and DMSO only with the respective modified cell lines was added to the negative control (NC) columns. Final DMSO concentration was kept at or below 0.25%. Treated cell plates were placed in an incubator at 37° C. with 5% CO2 for 24 hours. After 24 hours, 25 μL of Complete HiBit Lytic reagent was added to each well at room temperature (e.g. one plate requiring 10 mL Lytic Buffer, 100 μL LgBiT Protein, 200 μL Lytic Substrate), shaken for 5 minutes at 600 RPM, then left to sit for 10 minutes for signal to stabilize before reading on a Spark Cyto plate reader (Tecan) with a 500 ms measurement time.
(§4) To determine compound effects on protein abundance of each target in Table 5, the percent response for each respective cell line was calculated at each compound concentration as follows:
(§5) For the normalized response at each concentration, a four-parameter logistical regression was fit to the data and the response was interpolated at the 50% value to determine a concentration for protein abundance at 50% (IC50) the untreated control.

[2] = tested on: HiBiT-tagged Target C protein in K562 cells; assay: HiBiT protein abundance assay, Target C; assay type: cell-based, human; conditions: HiBiT-modified K562 cells, 24 hours, luminescence
Procedure: as §1, §2, §3, §4, §5

[3] = tested on: HiBiT-tagged HTT protein in K562 cells; assay: HiBiT protein abundance assay, HTT; assay type: cell-based, human; conditions: HiBiT-modified K562 cells, 24 hours, luminescence
Procedure: as §1, §2, §3, §4, §5

[4] = Cell Titer Glo 2.0 cell viability assay; conditions: human, K562 cells

Row | SMILES | IC50 [1] [nM] | IC50 [2] [nM] | IC50 [3] [nM] | GI50 at 72 h [4] [nM]
1 | Cc1cn2cc(-c3cc4ncn([C@H]5CCNC[C@@H]5F)c(=O)c4s3)cc(F)c2n1 (relative stereo) [Compound 272, trans-6-{8-fluoro-2-methylimidazo[1,2-a]pyridin-6-yl}-3-[3-fluoropiperidin-4-yl]thieno[3,2-d]pyrimidin-4-one] | 1000 to 10000 | 1000 to 10000 | 1000 to 10000 | > 10000
2 | Cc1cn2cc(-c3cc4ncn([C@H]5CCNC[C@H]5F)c(=O)c4s3)cc(F)c2n1 (relative stereo) [Compound 273, cis-6-{8-fluoro-2-methylimidazo[1,2-a]pyridin-6-yl}-3-[3-fluoropiperidin-4-yl]thieno[3,2-d]pyrimidin-4-one] | 1000 to 10000 | 1000 to 10000 | 1000 to 10000 | 1000 to 10000
3 | Cc1cn2cc(-c3cc4ncn([C@H]5CCN[C@H](C)C5)c(=O)c4s3)cc(F)c2n1 (relative stereo) [Compound 277, 6-{8-fluoro-2-methylimidazo[1,2-a]pyridin-6-yl}-3-[(trans)-2-methylpiperidin-4-yl]thieno[3,2-d]pyrimidin-4-one] | 100 to 1000 | 100 to 1000 | 100 to 1000 | 100 to 1000
4 | Cc1cn2cc(-c3cc4ncn([C@H]5CCN[C@@H](C)C5)c(=O)c4s3)cc(F)c2n1 (relative stereo) [Compound 278, 6-{8-fluoro-2-methylimidazo[1,2-a]pyridin-6-yl}-3-[(cis)-2-methylpiperidin-4-yl]thieno[3,2-d]pyrimidin-4-one hydrochloride] | 100 to 1000 | 100 to 1000 | 100 to 1000 | 100 to 1000
5 | Cc1cc(-c2cc(=O)n3cc(N4CCN(C)CC4)sc3n2)cc2cn(C)nc12 [Compound 109, 7-(2,7-dimethyl-2H-indazol-5-yl)-2-(4-methylpiperazin-1-yl)-5H-thiazolo[3,2-a]pyrimidin-5-one] | > 10000 | > 10000 | > 10000 | 1000 to 10000
6 | Cc1cc(-c2cc(=O)n3nc(N4CCN(C)CC4)sc3n2)cc2cn(C)nc12 [Compound 157, 7-(2,7-dimethyl-2H-indazol-5-yl)-2-(4-methylpiperazin-1-yl)-5H-[1,3,4]thiadiazolo[3,2-a]pyrimidin-5-one] | > 10000 | > 10000 | > 10000 | > 10000
7 | Cc1cn2cc(-c3cc(=O)n4nc(N5CCN(C)CC5)sc4n3)cc(F)c2n1 [Compound 159, 7-(8-fluoro-2-methylimidazo[1,2-a]pyridin-6-yl)-2-(4-methylpiperazin-1-yl)-5H-[1,3,4]thiadiazolo[3,2-a]pyrimidin-5-one] | 1000 to 10000 | 1000 to 10000 | 1000 to 10000 | 1000 to 10000
8 | Cc1cc(-c2nn3c(=O)cc(N4CCNCC4)nc3s2)cc2cn(C)nc12 [Compound 206, 2-(2,7-dimethyl-2H-indazol-5-yl)-7-(piperazin-1-yl)-5H-[1,3,4]thiadiazolo[3,2-a]pyrimidin-5-one] | 1000 to 10000 | 1000 to 10000 | 1000 to 10000 | 1000 to 10000
9 | Cc1cn2cc(-c3cc(=O)n4cc(N5CCNC6(CC6)C5)sc4n3)cc(F)c2n1 [Compound 207, 7-(8-fluoro-2-methylimidazo[1,2-a]pyridin-6-yl)-2-(4,7-diazaspiro[2.5]octan-7-yl)-5H-thiazolo[3,2-a]pyrimidin-5-one] | > 10000 | > 10000 | > 10000 | > 10000
10 | Cc1cn2cc(-c3cn4c(=O)cc(N5CCNC6(CC6)C5)nc4s3)cc(F)c2n1 [Compound 208, 2-(8-fluoro-2-methylimidazo[1,2-a]pyridin-6-yl)-7-(4,7-diazaspiro[2.5]octan-7-yl)-5H-thiazolo[3,2-a]pyrimidin-5-one] | 1000 to 10000 | 1000 to 10000 | 1000 to 10000 | 1000 to 10000
11 | Cc1cn2cc(-c3cc(=O)n4nc(N5CCNC6(CC6)C5)sc4n3)cc(F)c2n1 [Compound 209, 7-(8-fluoro-2-methylimidazo[1,2-a]pyridin-6-yl)-2-(4,7-diazaspiro[2.5]octan-7-yl)-5H-[1,3,4]thiadiazolo[3,2-a]pyrimidin-5-one] | 1000 to 10000 | 1000 to 10000 | 1000 to 10000 | 1000 to 10000
12 | Cc1cc(-c2nn3c(=O)cc(N4CCN(C)CC4)nc3s2)cc2cn(C)nc12 [Compound 210, 2-(2,7-dimethyl-2H-indazol-5-yl)-7-(4-methylpiperazin-1-yl)-5H-[1,3,4]thiadiazolo[3,2-a]pyrimidin-5-one] | 1000 to 10000 | 1000 to 10000 | 1000 to 10000 | 1000 to 10000
13 | Cc1cn2nc(-c3cc(=O)n4cc(N5CCNC6(CC6)C5)sc4n3)cc(C)c2n1 [Compound 211, 7-(2,8-dimethylimidazo[1,2-b]pyridazin-6-yl)-2-(4,7-diazaspiro[2.5]octan-7-yl)-5H-thiazolo[3,2-a]pyrimidin-5-one] | 1000 to 10000 | 1000 to 10000 | 1000 to 10000 | 1000 to 10000
14 | Cc1cn2nc(-c3cn4c(=O)cc(N5CCNC6(CC6)C5)nc4s3)cc(C)c2n1 [Compound 212, 2-(2,8-dimethylimidazo[1,2-b]pyridazin-6-yl)-7-(4,7-diazaspiro[2.5]octan-7-yl)-5H-thiazolo[3,2-a]pyrimidin-5-one] | 1000 to 10000 | 1000 to 10000 | 1000 to 10000 | 1000 to 10000
15 | Cc1cn2cc(-c3cn4c(=O)cc(N5CCNCC5)nc4s3)cc(F)c2n1 [Compound 213, 2-(8-fluoro-2-methylimidazo[1,2-a]pyridin-6-yl)-7-(piperazin-1-yl)-5H-thiazolo[3,2-a]pyrimidin-5-one] | > 10000 | > 10000 | > 10000 | > 10000
16 | Cc1cn2cc(-c3nn4c(=O)cc(N5CCNCC5)nc4s3)cc(F)c2n1 [Compound 214, 2-(8-fluoro-2-methylimidazo[1,2-a]pyridin-6-yl)-7-(piperazin-1-yl)-5H-[1,3,4]thiadiazolo[3,2-a]pyrimidin-5-one] | > 10000 | > 10000 | > 10000 | 1000 to 10000
17 | Cc1cn2cc(-c3nn4c(=O)cc(N5CCNC6(CC6)C5)nc4s3)cc(F)c2n1 [Compound 216, 2-(8-fluoro-2-methylimidazo[1,2-a]pyridin-6-yl)-7-(4,7-diazaspiro[2.5]octan-7-yl)-5H-[1,3,4]thiadiazolo[3,2-a]pyrimidin-5-one] | 1000 to 10000 | 1000 to 10000 | 1000 to 10000 | 1000 to 10000
18 | Cc1cn2cc(-c3nn4c(=O)cc(N5CCN(C)CC5)nc4s3)cc(F)c2n1 [Compound 217, 2-(8-fluoro-2-methylimidazo[1,2-a]pyridin-6-yl)-7-(4-methylpiperazin-1-yl)-5H-[1,3,4]thiadiazolo[3,2-a]pyrimidin-5-one] | 1000 to 10000 | 1000 to 10000 | 1000 to 10000 | 1000 to 10000
19 | Cc1cn2cc(-c3nn4c(=O)cc(N5CCN(C)C6(CC6)C5)nc4s3)cc(F)c2n1 [Compound 218, 2-(8-fluoro-2-methylimidazo[1,2-a]pyridin-6-yl)-7-(4-methyl-4,7-diazaspiro[2.5]octan-7-yl)-5H-[1,3,4]thiadiazolo[3,2-a]pyrimidin-5-one] | 1000 to 10000 | 1000 to 10000 | 1000 to 10000 | 1000 to 10000
20 | Cn1cc2cc(-n3cnc4nc(N5CCNCC5)sc4c3=O)ccc2n1 [Compound 225, 6-(2-methyl-2H-indazol-5-yl)-2-(piperazin-1-yl)thiazolo[4,5-d]pyrimidin-7(6H)-one] | > 10000 | > 10000 | > 10000 | > 10000
21 | Cc1cn2cc(-n3cnc4nc(N5CCNCC5)sc4c3=O)cc(F)c2n1 [Compound 226, 6-(8-fluoro-2-methylimidazo[1,2-a]pyridin-6-yl)-2-(piperazin-1-yl)thiazolo[4,5-d]pyrimidin-7(6H)-one] | 100 to 1000 | 100 to 1000 | 100 to 1000 | 100 to 1000
22 | Cc1cn2cc(-n3cnc4nc(N5CCN(C)CC5)sc4c3=O)cc(F)c2n1 [Compound 228, 6-(8-fluoro-2-methylimidazo[1,2-a]pyridin-6-yl)-2-(4-methylpiperazin-1-yl)thiazolo[4,5-d]pyrimidin-7(6H)-one] | 1000 to 10000 | 1000 to 10000 | 1000 to 10000 | 1000 to 10000
